Results taken from ChEMBL document CHEMBL4339196, “1H-Pyrrolo[3,2-b]pyridine GluN2B-Selective Negative Allosteric Modulators” (ACS Med Chem Lett, 2019).

Key:
[1] = Solubility of the compound at pH 2; type: physicochemical; details: buffer
[2] = Solubility of the compound at pH 7; type: physicochemical; details: buffer

solubility [1]: < 4 µM
solubility [2]: < 4 µM
SMILES: O=C(Cn1c(=O)[nH]c2ncc(-c3cccc(C(F)(F)F)c3)cc21)NC1CC1
